Article PMC8987110, “The Nutraceutical Alliin From Garlic Is a Novel Substrate of the Essential Amino Acid Transporter LAT1 (SLC7A5)” (Frontiers in Pharmacology, 2022)

Tests used:
hLAT1 (LAT1, SLC7A5) [1] = molecular target: T1, hLAT1 (LAT1, SLC7A5) (Homo sapiens, UniProt Q01650); assay: inhibition of [3H]-histidine uptake in proteoliposomes, dose-response; assay type: biochemical
T1 construct: recombinant hLAT1 WT alone (no CD98/SLC3A2), expressed in E. coli Rosetta(DE3)pLysS, purified on HisTrap (His tag implied), reconstituted in proteoliposomes with cholesterol

hLAT1 (LAT1, SLC7A5) [2] = molecular target: T1, hLAT1 (LAT1, SLC7A5); assay: inhibition of [3H]-histidine uptake in proteoliposomes, Lineweaver-Burk; assay type: biochemical

T1 sequence (Q01650 whole entry): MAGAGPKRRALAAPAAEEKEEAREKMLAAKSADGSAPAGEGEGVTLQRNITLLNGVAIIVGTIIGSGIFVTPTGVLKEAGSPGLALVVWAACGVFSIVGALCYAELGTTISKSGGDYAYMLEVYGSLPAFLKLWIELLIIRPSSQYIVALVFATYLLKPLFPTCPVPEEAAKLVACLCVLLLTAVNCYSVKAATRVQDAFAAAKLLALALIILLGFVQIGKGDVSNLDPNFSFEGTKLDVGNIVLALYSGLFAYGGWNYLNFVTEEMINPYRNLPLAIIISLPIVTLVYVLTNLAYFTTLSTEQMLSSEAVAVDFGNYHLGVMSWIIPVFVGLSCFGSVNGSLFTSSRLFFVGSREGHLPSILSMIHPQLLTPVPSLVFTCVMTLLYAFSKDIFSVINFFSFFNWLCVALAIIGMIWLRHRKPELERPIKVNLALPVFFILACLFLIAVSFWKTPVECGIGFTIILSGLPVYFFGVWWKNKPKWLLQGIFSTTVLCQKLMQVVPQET

- IC50 (hLAT1 (LAT1, SLC7A5) [1]): 79 ± 9 µM
- Ki (hLAT1 (LAT1, SLC7A5) [2]): 50 ± 19 µM
SMILES: C=CC[S@+]([O-])C[C@H](N)C(=O)O [alliin]
